Structures can show the parent of a compound that is named as a salt. Blank lines part the entries; values can stand above or below the compound they belong to.
Experiment: Comparative intrinsic dissolution study
Assay type: physicochemical
Details: for % Release of Doxazosin Mesylate: 50 mg pellet, 900 ml 0.01N HCl, 37±0.5° C., paddle 50 rpm
Method: To measure the intrinsic dissolution of the doxazosin mesylate Form IV, Form M and Form D, samples were measured to compare the influence of the different parameter settings. At appropriate time intervals, an automated sample collector removes aliquots from dissolution medium for analysis. The time interval for sampling can vary, for example, from 2 to 30 minutes, depending on the properties of the drug and dissolution medium used. Suitable dissolution equipment for these operations include LAB INDIA DISSO 2000.
A tableting mixture (50 mg) comprising solely doxazosin mesylate (i.e. with no excipients) was prepared and compressed to a pellet using a manual hand press operating at a compression pressure of 5 tones for 5 minutes.
In-vitro dissolutions studies were performed on the 50 mg pellet in a LAB INDIA DISSO 2000.
The pellet was fixed in a PFTE holder, such that only the pellet surface came into contact with the dissolution medium. The PFTE loaded holder was placed in the dissolution vessel containing 900 ml of 0.01N HCl at 37±0.5° C. Three pellets were measured for each run of the design of the experiments. Stirring was performed with a paddle rotating at 50 rpm. The dissolution was followed up to 1440 min and the concentration of active ingredient, doxazosin mesylate, dissolved in the test medium was determined by removing samples of 10 ml at the specified time.
The concentration of doxazosin mesylate was quantified by HPLC UV method at a maximum wavelength of 245 nm under conditions as specified: • Mobile Phase: 450:450:100:: Buffer:MeOH:Acetonitrile • Buffer: 0.3% v/v Diethylamine. The pH adjusted to 2.5 with orthophosphoric acid • Column: Inersil ODS 15 cm • Flow: 1.0 ml/min
The percentage of doxazosin mesylate released was plotted against time. The intrinsic dissolution rate was derived from the slope of this curve.

% Release of Doxazosin Mesylate (5 minutes, listed as Form -D): 1.8%
% Release of Doxazosin Mesylate (15 minutes, listed as Form -D): 3.5%
% Release of Doxazosin Mesylate (30 minutes, listed as Form -D): 6.1%
% Release of Doxazosin Mesylate (45 minutes, listed as Form -D): 8.8%
% Release of Doxazosin Mesylate (60 minutes, listed as Form -D): 10.7%
% Release of Doxazosin Mesylate (120 minutes, listed as Form -D): 18.5%
% Release of Doxazosin Mesylate (180 minutes, listed as Form -D): 27.0%
% Release of Doxazosin Mesylate (240 minutes, listed as Form -D): 32.3%
% Release of Doxazosin Mesylate (360 minutes, listed as Form -D): 51.0%
% Release of Doxazosin Mesylate (480 minutes, listed as Form -D): 65.1%
% Release of Doxazosin Mesylate (600 minutes, listed as Form -D): 72.7%
% Release of Doxazosin Mesylate (720 minutes): 74.5%
% Release of Doxazosin Mesylate (720 minutes, listed as Form -D): 74.5%
% Release of Doxazosin Mesylate (900 minutes, listed as Form -D): 76.0%
% Release of Doxazosin Mesylate (1080 minutes, listed as Form -D): 75.8%
% Release of Doxazosin Mesylate (1260 minutes, listed as Form -D): 75.6%
SMILES: COc1cc2nc(N3CCN(C(=O)C4COc5ccccc5O4)CC3)nc(N)c2cc1OC (stereo not drawn) [Form D, doxazosin mesylate]

% Release of Doxazosin Mesylate (5 minutes, monomethanesulfonate): 1.6%
% Release of Doxazosin Mesylate (15 minutes, monomethanesulfonate): 3.6%
% Release of Doxazosin Mesylate (30 minutes, monomethanesulfonate): 6.6%
% Release of Doxazosin Mesylate (45 minutes, monomethanesulfonate): 9.5%
% Release of Doxazosin Mesylate (60 minutes, monomethanesulfonate): 12.0%
% Release of Doxazosin Mesylate (120 minutes, monomethanesulfonate): 21.8%
% Release of Doxazosin Mesylate (180 minutes, monomethanesulfonate): 34.5%
% Release of Doxazosin Mesylate (240 minutes, monomethanesulfonate): 45.7%
% Release of Doxazosin Mesylate (360 minutes, monomethanesulfonate): 66.2%
% Release of Doxazosin Mesylate (480 minutes, monomethanesulfonate): 77.4%
% Release of Doxazosin Mesylate (600 minutes, monomethanesulfonate): 80.0%
% Release of Doxazosin Mesylate (720 minutes, listed as Form -IV, monomethanesulfonate): 81.1%
% Release of Doxazosin Mesylate (720 minutes, monomethanesulfonate): 81.1%
% Release of Doxazosin Mesylate (900 minutes, monomethanesulfonate): 79.7%
% Release of Doxazosin Mesylate (1080 minutes, monomethanesulfonate): 79.2%
% Release of Doxazosin Mesylate (1260 minutes, monomethanesulfonate): 77.6%
higher dissolution rate compared with known Form D (at 30 minutes): 8%
higher dissolution rate compared with known Form D (at 60 minutes): 10.84%
higher dissolution rate compared with known Form D (at 120 minutes): 15.14%
higher dissolution rate compared with known Form D (at 180 minutes): 21.74%
higher dissolution rate compared with known Form D (at 240 minutes): 29.33%
rate of dissolution (compared with known forms, Form M and Form D): superior rate of dissolution
SMILES: COc1cc2nc(N3CCN(C(=O)C4COc5ccccc5O4)CC3)nc(N)c2cc1OC (stereo not drawn) [Form IV, 1-(4-amino-6,7-dimethoxy-2-quinazolinyl)-4-(2,3-dihydro-1,4-benzodioxin-2-yl)carbonyl piperazine monomethanesulfonate]

% Release of Doxazosin Mesylate (5 minutes, listed as Form -M): 1.5%
% Release of Doxazosin Mesylate (15 minutes, listed as Form -M): 2.8%
% Release of Doxazosin Mesylate (30 minutes, listed as Form -M): 5.0%
% Release of Doxazosin Mesylate (45 minutes, listed as Form -M): 6.5%
% Release of Doxazosin Mesylate (60 minutes, listed as Form -M): 8.1%
% Release of Doxazosin Mesylate (120 minutes, listed as Form -M): 14.1%
% Release of Doxazosin Mesylate (180 minutes, listed as Form -M): 20.8%
% Release of Doxazosin Mesylate (240 minutes, listed as Form -M): 26.5%
% Release of Doxazosin Mesylate (360 minutes, listed as Form -M): 39.5%
% Release of Doxazosin Mesylate (480 minutes, listed as Form -M): 50.2%
% Release of Doxazosin Mesylate (600 minutes, listed as Form -M): 58.8%
% Release of Doxazosin Mesylate (720 minutes, listed as Form -M): 67.0%
% Release of Doxazosin Mesylate (720 minutes, listed as form M): 67.0%
% Release of Doxazosin Mesylate (900 minutes, listed as Form -M): 74.9%
% Release of Doxazosin Mesylate (1080 minutes, listed as Form -M): 78.0%
% Release of Doxazosin Mesylate (1260 minutes, listed as Form -M): 79.5%
SMILES: COc1cc2nc(N3CCN(C(=O)C4COc5ccccc5O4)CC3)nc(N)c2cc1OC (stereo not drawn) [Form M, doxazosin mesylate]
